Assay results: the Kinase Knowledgebase extract (Sharma et al. 2016)

Biological target: CDK2 (human) (UniProt P24941)
Experiment: Enzyme Assay

IC50	Compound
< 5 µM	Cc1cnccc1-c1ccnc(Nc2cccc(Cl)c2)n1
< 5 µM	NCCNc1ncccc1-c1ccnc(Nc2cccc(Cl)c2)n1
< 5 µM	Clc1cccc(Nc2nccc(-c3cccnc3NCCCN3CCOCC3)n2)c1
< 5 µM	COc1ncccc1-c1ccnc(Nc2cccc(-c3nncn3C)c2)n1
< 5 µM	CNS(=O)(=O)c1cccc(Nc2nccc(-c3cccnc3OC)n2)c1
< 5 µM	COc1ncccc1-c1ccnc(Nc2cccc(C#N)c2)n1
< 5 µM	CC(=O)NCCCNc1nccc(-c2ccnc(Nc3cccc(Cl)c3)n2)c1C
< 5 µM	NCCCNc1ncccc1-c1ccnc(Nc2cccc(S(N)(=O)=O)c2)n1
< 5 µM	N#Cc1cccc(Nc2nccc(-c3cccnc3NCCCN)n2)c1
< 5 µM	Cc1c(-c2ccnc(Nc3cccc(Cl)c3)n2)ccnc1NCc1ccccc1
< 5 µM	Cc1c(-c2ccnc(Nc3cccc(Cl)c3)n2)ccnc1NCCCn1ccnc1
< 5 µM	OCCCNc1ncccc1-c1ccnc(Nc2cccc(Cl)c2)n1
< 5 µM	CC(=O)NCCCNc1cc(-c2ccnc(Nc3cccc(Cl)c3)n2)cc(C)n1
< 5 µM	COc1ncccc1-c1ccnc(Nc2cccc(C(=O)O)c2)n1
< 5 µM	COc1cnccc1-c1ccnc(Nc2cccc(S(C)(=O)=O)c2)n1
< 5 µM	CC(=O)NCCNc1ncccc1-c1ccnc(Nc2cccc(Cl)c2)n1
< 5 µM	CC(=O)NCCCNc1cc(-c2nc(Nc3cccc(Cl)c3)ncc2C)ccn1
< 5 µM	COc1ncccc1-c1ccnc(Nc2cccc(S(N)(=O)=O)c2)n1
< 5 µM	CCOC(=O)c1cccc(Nc2nccc(-c3cccnc3OC)n2)c1
< 5 µM	COCCCNc1ncccc1-c1ccnc(Nc2cccc(Cl)c2)n1
< 5 µM	COc1ncccc1-c1ccnc(Nc2cccc(C(N)=O)c2)n1

IC50	Compound
< 5 µM	COc1ncccc1-c1ccnc(Nc2cccc(S(C)(=O)=O)c2)n1
< 5 µM	Cc1c(-c2ccnc(Nc3cccc(Cl)c3)n2)ccnc1NCCCN1CCOCC1
< 5 µM	COc1ncccc1-c1ccnc(Nc2cccc(NC(C)=O)c2)n1
< 5 µM	O=C1CCCN1CCCNc1ncccc1-c1ccnc(Nc2cccc(Cl)c2)n1
< 5 µM	CC(C)(CN)CNc1ncccc1-c1ccnc(Nc2cccc(Cl)c2)n1
< 5 µM	Cc1nccn1CCCNc1ncccc1-c1ccnc(Nc2cccc(Cl)c2)n1
< 5 µM	COc1ncccc1-c1ccnc(Nc2ccc3cn[nH]c3c2)n1
< 5 µM	Nc1cnccc1-c1ccnc(Nc2cccc(Cl)c2)n1
< 5 µM	CC(C)NCCCNc1ncccc1-c1ccnc(Nc2cccc(Cl)c2)n1
< 5 µM	Clc1cccc(Nc2nccc(-c3cccnc3NCCCn3ccnc3)n2)c1
< 5 µM	NCCCNc1ncccc1-c1ccnc(Nc2cccc(Cl)c2)n1
< 5 µM	COc1ncccc1-c1ccnc(Nc2cccc(S(=O)(=O)N3CCCCC3)c2)n1
< 5 µM	CC(=O)NCC(C)(C)CNc1ncccc1-c1ccnc(Nc2cccc(Cl)c2)n1
< 5 µM	COc1ncccc1-c1ccnc(Nc2cccc(-c3cnco3)c2)n1
< 5 µM	CCNS(=O)(=O)c1cccc(Nc2nccc(-c3cccnc3OC)n2)c1
< 5 µM	CC(=O)NCCCCNc1ncccc1-c1ccnc(Nc2cccc(Cl)c2)n1
< 5 µM	COc1ncccc1-c1ccnc(Nc2cccc(S(=O)(=O)NCCO)c2)n1
< 5 µM	Clc1cccc(Nc2nccc(-c3cccnc3NCCc3c[nH]cn3)n2)c1
< 5 µM	NS(=O)(=O)c1cccc(Nc2nccc(-c3cccnc3NCCCn3ccnc3)n2)c1
< 5 µM	CCNC(=O)c1cccc(Nc2nccc(-c3cccnc3OC)n2)c1
< 5 µM	CNCCNc1nccc(-c2ccnc(Nc3cccc(Cl)c3)n2)c1C

IC50	Compound
< 5 µM	COc1cnccc1-c1ccnc(Nc2cccc(Cl)c2)n1
< 5 µM	CN(C)CCCNc1ncccc1-c1ccnc(Nc2cccc(Cl)c2)n1
< 5 µM	CC(=O)NCCCNc1ncccc1-c1ccnc(Nc2cccc(S(N)(=O)=O)c2)n1
< 5 µM	CC(=O)NCCCNc1ncccc1-c1ccnc(Nc2cccc(Cl)c2)n1
< 5 µM	NCCCCNc1ncccc1-c1ccnc(Nc2cccc(Cl)c2)n1
< 5 µM	COc1ncccc1-c1ccnc(Nc2cccc(C(=O)OC(C)(C)C)c2)n1
< 5 µM	COc1ncccc1-c1ccnc(Nc2cccc(C3CCNCC3)c2)n1
< 5 µM	COc1ccc(-c2ccnc(Nc3cccc(S(C)(=O)=O)c3)n2)c(OC)n1
< 5 µM	CC(=O)NCCCNc1nccc(-c2ccnc(Nc3cccc([N+](=O)[O-])c3)n2)c1C
< 5 µM	CS(=O)(=O)NCCCNc1ncccc1-c1ccnc(Nc2cccc(Cl)c2)n1
< 5 µM	Cc1c(-c2ccnc(Nc3cccc(Cl)c3)n2)ccnc1NCCCN1CCCC1=O
< 5 µM	COc1cnccc1-c1ccnc(Nc2cccc(S(N)(=O)=O)c2)n1
< 5 µM	CS(=O)(=O)c1cccc(Nc2nccc(-c3cccnc3NCCCN)n2)c1
< 5 µM	CC(=O)NCCCNc1ncccc1-c1ccnc(Nc2cccc(C#N)c2)n1
< 5 µM	CCCCNS(=O)(=O)c1cccc(Nc2nccc(-c3cccnc3OC)n2)c1
< 5 µM	Cc1cnc(Nc2cccc(Cl)c2)nc1-c1cccnc1NCCCN
< 5 µM	CC(=O)OCCCNc1ncccc1-c1ccnc(Nc2cccc(Cl)c2)n1
< 5 µM	COCCCNc1nccc(-c2ccnc(Nc3cccc(Cl)c3)n2)c1C
< 5 µM	COc1ncccc1-c1ccnc(Nc2ccc(N3CCN(C)CC3)cc2)n1
